According to US4698352A, “4-oxo-1,4-dihydronicotinic acid derivatives, salts thereof, and antibacterial agents containing the same” (Toyama Chemical Co., Ltd., priority 1982, dated 1987):
Values after ≈ are worked out from the molar mass of the structure shown. Where two headings read alike, the source gives them in different places.

How the values were obtained:
Assay in all cases: Antibacterial activity (MIC), agar dilution
Format in all cases: cell-based
St. aureus F-137* = conditions: Staphylococcus aureus, 20 h, St. aureus F-137, penicillinase-producing; 10^6 cells per ml; read-out: MIC
Excerpt: (§1) The amount of bacteria inoculated was 10^4 cells per plate (10^6 cells per ml).
(§2) * Penicillinase-producing bacteria

E. coli TK-3* = conditions: Escherichia coli, 20 h, E. coli TK-3, penicillinase-producing; 10^6 cells per ml; read-out: MIC
Excerpt: as §1, §2

Kl. pneumoniae Y-4* = conditions: Klebsiella pneumoniae, 20 h, Kl. pneumoniae Y-4, penicillinase-producing; 10^6 cells per ml; read-out: MIC
Excerpt: as §1, §2

Ps. aeruginosa GN3379* = conditions: Pseudomonas aeruginosa, 20 h; Ps. aeruginosa GN3379, penicillinase-producing; 10^6 cells per ml; read-out: MIC
Excerpt: as §1, §2

Pro. vulgaris GN76** = conditions: Proteus vulgaris, 20 h; Pro. vulgaris GN76, cephalospolinase-producing; 10^6 cells per ml; read-out: MIC
Excerpt: as §1
(§3) ** Cephalospolinase-producing bacteria

E. coli GN5482** = conditions: Escherichia coli, 20 h; E. coli GN5482, cephalospolinase-producing; 10^6 cells per ml; read-out: MIC
Excerpt: as §1, §3

Ps. aeruginosa GN918** = conditions: Pseudomonas aeruginosa, 20 h; Ps. aeruginosa GN918, cephalospolinase-producing; 10^6 cells per ml; read-out: MIC
Excerpt: as §1, §3

Kl. pneumoniae Y-41 = conditions: Klebsiella pneumoniae, Y41, 10^6 cells per ml, 37° C., 20 hours, read-out: MIC
Excerpt: as §1

St. aureus FDA209P = conditions: Staphylococcus aureus, FDA209P, 20 h, St. aureus FDA209P; 10^6 cells per ml; 37° C., 20 hours; read-out: MIC
Excerpt: as §1

E. coli TK-111 = conditions: Escherichia coli, TK111, 20 h, E. coli TK-111; 10^6 cells per ml; 37° C., 20 hours; read-out: MIC
Excerpt: as §1

Kl. pneumoniae Y-50 = conditions: Klebsiella pneumoniae, Y50, 20 h, 10^6 cells per ml, 37° C., read-out: MIC
Excerpt: as §1

Ps. aeruginosa IFO3445 = conditions: Pseudomonas aeruginosa; Ps. aeruginosa IFO3445; 10^6 cells per ml; 37° C., 20 hours; read-out: MIC
Excerpt: as §1

Pro. morganii T-216 = conditions: Morganella morganii, 37° C.
Excerpt: as §1

Pro. mirabilis T-111 = conditions: Proteus mirabilis, T111, 10^6 cells per ml, 37° C., 20 hours, read-out: MIC
Excerpt: as §1

E. coli NIHJ JC-2 = conditions: Escherichia coli, NIHJJC2, 20 h, E. coli NIHJ JC-2; 10^6 cells per ml; 37° C., 20 hours; read-out: MIC
Excerpt: as §1

Pro. vulgaris GN3027 = conditions: Proteus vulgaris, GN3027, 20 h, Pro. vulgaris GN3027; 10^6 cells per ml; 37° C., 20 hours; read-out: MIC
Excerpt: as §1

Ent. cloacae IID977 = conditions: Enterobacter cloacae, IID977, 20 h, Ent. cloacae IID977; 10^6 cells per ml; 37° C., 20 hours; read-out: MIC
Excerpt: as §1

Aci. antitratus A-6 = conditions: 20 h, Aci. antitratus A-6; 10^6 cells per ml; 37° C., 20 hours; read-out: MIC
Excerpt: as §1

Ps. aeruginosa S-68 = conditions: Pseudomonas aeruginosa, S68; Ps. aeruginosa S-68; 10^6 cells per ml; 37° C., 20 hours; read-out: MIC
Excerpt: as §1

[1] = T216, 10^6 cells per ml, 20 hours, read-out: MIC

| Structure (SMILES) | MIC (St. aureus F-137*) [µg/mL] | MIC (E. coli TK-3*) [µg/mL] | MIC (Kl. pneumoniae Y-4*) [µg/mL] | MIC (Ps. aeruginosa GN3379*) [µg/mL] | MIC (Pro. vulgaris GN76**) [µg/mL] | MIC (E. coli GN5482**) [µg/mL] | MIC (Ps. aeruginosa GN918**) [µg/mL] | MIC (Kl. pneumoniae Y-41) [µg/mL] | MIC (St. aureus FDA209P) [µg/mL] | MIC (E. coli TK-111) [µg/mL] | MIC (Kl. pneumoniae Y-50) [µg/mL] | MIC (Ps. aeruginosa IFO3445) [µg/mL] | MIC (Pro. morganii T-216; [1]) [µg/mL] | MIC (Pro. mirabilis T-111) [µg/mL] | MIC (E. coli NIHJ JC-2) [µg/mL] | MIC (Pro. vulgaris GN3027) [µg/mL] | MIC (Ent. cloacae IID977) [µg/mL] | MIC (Aci. antitratus A-6) [µg/mL] | MIC (Ps. aeruginosa S-68) [µg/mL] | MIC (Pro. morganii T-216; T216, 20 h, 10^6 cells per ml) [µg/mL] |
| --- | --- | --- | --- | --- | --- | --- | --- | --- | --- | --- | --- | --- | --- | --- | --- | --- | --- | --- | --- | --- |
| Cn1ccc2cc(-c3cc(=O)c(C(=O)O)cn3-c3ccc(O)cc3F)ccc21 | ≤ 0.05 | 0.2 (≈ 0.529 µM) | 0.78 (≈ 2.06 µM) | 3.13 (≈ 8.27 µM) | 0.39 (≈ 1.03 µM) | ≤ 0.05 | 0.78 (≈ 2.06 µM) | 0.39 (≈ 1.03 µM) | 0.05 (≈ 0.132 µM) | ≤ 0.05 | 0.2 (≈ 0.529 µM) | 1.56 (≈ 4.12 µM) | 0.39 (≈ 1.03 µM) | 0.39 (≈ 1.03 µM) | ≤ 0.05 | ≤ 0.05 | 0.39 (≈ 1.03 µM) | ≤ 0.05 | 1.56 (≈ 4.12 µM) |  |
| CC(=O)Oc1ccc(-n2cc(C(=O)OCCN(C)C)c(=O)cc2-c2ccc3c(ccn3C)c2)c(F)c1 | ≤ 0.05 | 0.39 (≈ 0.793 µM) | 3.13 (≈ 6.37 µM) | 12.5 (≈ 25.4 µM) | 0.78 (≈ 1.59 µM) | ≤ 0.05 | 1.56 (≈ 3.17 µM) | 3.13 (≈ 6.37 µM) | ≤ 0.05 | ≤ 0.05 | 0.39 (≈ 0.793 µM) | 6.25 (≈ 12.7 µM) |  | 1.56 (≈ 3.17 µM) | 0.1 (≈ 0.203 µM) | 0.1 (≈ 0.203 µM) | 0.78 (≈ 1.59 µM) | 0.39 (≈ 0.793 µM) | 6.25 (≈ 12.7 µM) | 3.13 (≈ 6.37 µM) |
| COc1ccc(-c2cc(=O)c(C(=O)O)cn2-c2ccc(O)cc2C)cc1 | 0.1 (≈ 0.285 µM) | 0.2 (≈ 0.569 µM) | 0.78 (≈ 2.22 µM) | 12.5 (≈ 35.6 µM) | 0.39 (≈ 1.11 µM) | ≤ 0.05 | 1.56 (≈ 4.44 µM) | 0.78 (≈ 2.22 µM) | 0.1 (≈ 0.285 µM) | 0.05 (≈ 0.142 µM) | 0.1 (≈ 0.285 µM) | 3.13 (≈ 8.91 µM) | 1.56 (≈ 4.44 µM) | 1.56 (≈ 4.44 µM) | 0.1 (≈ 0.285 µM) | ≤ 0.05 | 0.39 (≈ 1.11 µM) | 0.2 (≈ 0.569 µM) | 3.13 (≈ 8.91 µM) |  |
